Assay results: patent US6521567B2, “Herbicidal composition” (priority 2001, dated 2003)

System: common cocklebur
Assay: Test Example 4: field spray, herbicidal activity (flumiclorac-pentyl)
Format: in vivo, Xanthium strumarium
Settings: index 0-100; common cocklebur height about 65 cm; 100 g/hectare alone; 1000 liters per hectare spray; after 4 days
Experimental: The herbicidal effect is evaluated with indices of 0 to 100 at intervals of 5, wherein “0” means that there was no or little difference in the degree of germination or growth between the treated plants and the untreated plants at the time of examination, “100” means that the test plants died completely.
Ten (10) parts of flumiclorac-pentyl were dissolved in 80 parts of xylene, after adding 10 parts of Sorpol 3005X (produced by Toho Chemical), the solution was well stirred and mixed to give 10% emulsifiable concentrate of flumiclorac-pentyl. From the aqueous dilution of said 10% emulsifiable concentrate of flumiclorac-pentyl, with a aqueous dilution of 25% emulsifiable concentrate of thiometon (commercial name: Ekatin EC, produced by Sankyo), 45% emulsifiable concentrate of oxydeprofos (commercial name: Estox EC, produced by Nihon Bayer Agrochem) or 50% emulsifiable concentrate of fenthion (commercial name: baycid EC, produced by Nihon Bayer Agrochem), prepared each aqueous dilution of the prescribed concentration of the present formulation.
Their aqueous dilution of the present formulation, with 1000 liters per hectare, were sprayed over a place in the field where common cocklebur (the height: about 65 cm) were growing. After 4 days from the application, the herbicidal activity were examined.

Compound: CCCCCOC(=O)COc1cc(N2C(=O)C3=C(CCCC3)C2=O)c(F)cc1Cl [flumiclorac-pentyl, pentyl[2-chloro-5-(cyclohex-1-ene-1,2-dicarboximido)-4-fluorophenoxy]acetate]
- Herbicidal activity: 30
